The results in this text go back to patent publication US11873295B2, “Allosteric chromenone inhibitors of phosphoinositide 3-kinase (PI3K) for the treatment of disease” (Petra Pharma Corporation, priority 2021, dated 2024).

Assay [1] deals with T1, human full length PIK3KA Wild-type (p110α/p85α complex) (Homo sapiens, UniProt P42336).
T1 construct: Recombinant, catalytically active human full length PIK3KA Wild-type and H1047R mutant were purchased as 1:1 complex; 6xHis (N); purchased EMD Millipore Sigma 14-602M
Nature of the assay: PI3K-alpha kinase (PIK3CA) biochemical activity, wild-type, ADP-Glo. To be noted: PI3K-α (PIK3CA) biochemical, Soy PI lipid substrate. The method in brief: (§1)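 Full-length His-p110α/p85α complex, wild-type or H1047R, 1–5 nM, preincubated with compound 1 h at 27 °C in HEPES pH 7.4, 25 mM MgCl2, 0.01% Triton X-100, 1% DMSO. Reaction with 20 μM ATP and 50 μM PIP2diC8 or soy PI at 27 °C to ~10% ATP conversion; ADP-Glo luminescence. IC50 from 10-point four-parameter logistic fit.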
For orientation: ADP-Glo first removes unused ATP, then detects ADP through luciferase.

Assay [2] has as its target T2, human full length PIK3KA H1047R mutant (p110α/p85α complex) (Homo sapiens, UniProt P42336, H1047R).
T2 construct: Recombinant, catalytically active human full length PIK3KA Wild-type and H1047R mutant were purchased as 1:1 complex; 6xHis (N); purchased EMD Millipore Sigma 14-792M
Nature of the assay: PI3K-alpha kinase (PIK3CA) biochemical activity, H1047R mutant, ADP-Glo. To be noted: PI3K-α (PIK3CA) biochemical, H1047R mutant, Soy PI lipid substrate. An outline of the steps:
as §1

Assay [3] relates to PI3K-α (PIK3CA) in MDA-MB-453 cells. The assay is described as follows: PI3K-alpha kinase (PIK3CA) activity in vitro cell based assay, MDA-MB-453 cells, AlphaLisa SureFire. To be noted: 0% FBS, 3 hours treatment, relative IC50. As for the experimental part:
PI3K-Alpha Kinase (PIK3CA) Activity In Vitro Cell Based Assay and Determining IC50 Values for Inhibitors
The MDA-MB-453 (ATCC-HTB-131) cell line was obtained from the American Type Culture Collection (Manassas, VA). Cells were maintained in Dulbecco's Modified Eagle Media (DMEM, Gibco 11965-092) supplemented with 10% Fetal Bovine Serum, heat inactivated (FBS HI, Gibco 10082-147), 1× non-essential amino acids (NEAA, Gibco 11140-050), and 1 mM sodium pyruvate (Gibco 11360-070). Cultures were maintained in a humidified incubator at 37° C. under 5% CO2/95% air.
For compound testing in 0% FBS, MDA-MB-453 cells were seeded at a density of 1.5×10^4 cells per well in white 384-well plates in 20 μl of Minimum Essential Media (MEM) assay media with 1×NEAA, 1 mM sodium pyruvate, and 1 μg/mL human insulin (Sigma I9278). Compounds dissolved in 10 mM stock solutions in DMSO were serially diluted 1:3 in DMSO to generate a 10-point dilution series and plated using an acoustic liquid handler system (Echo 550 Series Liquid Handler, Labcyte). A 5× intermediate compound dilution plate in MEM with 1×NEAA and 1 mM sodium pyruvate (150 μM starting compound concentration in 1.5% DMSO) was then prepared. Five μl of the intermediate serially diluted compounds were added to the cell plate to final concentrations ranging from […] in 0.3% DMSO. 0.3% DMSO alone was used to establish the maximum (MAX) signal and GDC-0032 at a final concentration of 1 μM was used as a reference compound for the minimum (MIN) signal. After 3 hours treatment, the medium was removed, and the cells lysed in 10 μL of 1× SureFire Lysis buffer with shaking for 10 minutes at room temperature. The Acceptor Mix (Reaction Buffer 1+Reaction Buffer 2+Activation Buffer+SureFire Ultra Acceptor Beads) was prepared by diluting Activation buffer 25-fold in combined Reaction Buffer 1 and Reaction Buffer 2. The Acceptor beads were diluted 50-fold in the combined Reaction Buffers. Five μL of Acceptor Mix was added to each well, the plate was sealed and covered with foil and incubated for 1 hour at room temperature. The Donor Mix (dilution buffer+SureFire Ultra Donor Beads) was prepared by diluting Donor Beads 50-fold in dilution buffer. Five μL of the Donor Mix was added to each well and the plate sealed and covered with foil and incubated for 1 hour at room temperature in the dark. The plates were read on a Neo2 plate reader instrument from Biotek using standard AlphaLisa settings. Compounds were tested in duplicate and the average % inhibition at each compound concentration was used to generate a single dose response curve. The data were processed using the Genedata-Screener tool. Relative IC50 values were determined using luminescence units by calculating percent inhibition with respect to the in-plate “MIN” (GDC-0032 reference control) and “MAX” (DMSO) controls. The data was analyzed using a 4-parameter nonlinear logistic equation (four-parameter logistic concentration-response curve): Y=bottom+[(top−bottom)/1+(X/IC50)slope] where Y=% inhibition, X=concentration of inhibitor, bottom=minimum value of y attained by curve-fit, top=maximum value of y attained by curve-fit and slope=steepness of curve at the IC50. % Inhibition=[(signal at X−median Min)/(median Max−median Min)]×100 IC50: concentration of compound that reduces a given response (ligand binding, enzyme response) by 50%. Relative IC50: concentration giving half the compound's maximum response.
For IC50 values shown in Table B, “A” means IC50<50 nM; “B” means IC50 ranging between 50 nM and 100 nM; “C” means IC50 ranging between 100 nM and 500 nM; “D” means IC50>500 nM.
For orientation: Alpha assays give light when donor and acceptor beads are brought close together.

T2 sequence (P42336 whole entry H1047R): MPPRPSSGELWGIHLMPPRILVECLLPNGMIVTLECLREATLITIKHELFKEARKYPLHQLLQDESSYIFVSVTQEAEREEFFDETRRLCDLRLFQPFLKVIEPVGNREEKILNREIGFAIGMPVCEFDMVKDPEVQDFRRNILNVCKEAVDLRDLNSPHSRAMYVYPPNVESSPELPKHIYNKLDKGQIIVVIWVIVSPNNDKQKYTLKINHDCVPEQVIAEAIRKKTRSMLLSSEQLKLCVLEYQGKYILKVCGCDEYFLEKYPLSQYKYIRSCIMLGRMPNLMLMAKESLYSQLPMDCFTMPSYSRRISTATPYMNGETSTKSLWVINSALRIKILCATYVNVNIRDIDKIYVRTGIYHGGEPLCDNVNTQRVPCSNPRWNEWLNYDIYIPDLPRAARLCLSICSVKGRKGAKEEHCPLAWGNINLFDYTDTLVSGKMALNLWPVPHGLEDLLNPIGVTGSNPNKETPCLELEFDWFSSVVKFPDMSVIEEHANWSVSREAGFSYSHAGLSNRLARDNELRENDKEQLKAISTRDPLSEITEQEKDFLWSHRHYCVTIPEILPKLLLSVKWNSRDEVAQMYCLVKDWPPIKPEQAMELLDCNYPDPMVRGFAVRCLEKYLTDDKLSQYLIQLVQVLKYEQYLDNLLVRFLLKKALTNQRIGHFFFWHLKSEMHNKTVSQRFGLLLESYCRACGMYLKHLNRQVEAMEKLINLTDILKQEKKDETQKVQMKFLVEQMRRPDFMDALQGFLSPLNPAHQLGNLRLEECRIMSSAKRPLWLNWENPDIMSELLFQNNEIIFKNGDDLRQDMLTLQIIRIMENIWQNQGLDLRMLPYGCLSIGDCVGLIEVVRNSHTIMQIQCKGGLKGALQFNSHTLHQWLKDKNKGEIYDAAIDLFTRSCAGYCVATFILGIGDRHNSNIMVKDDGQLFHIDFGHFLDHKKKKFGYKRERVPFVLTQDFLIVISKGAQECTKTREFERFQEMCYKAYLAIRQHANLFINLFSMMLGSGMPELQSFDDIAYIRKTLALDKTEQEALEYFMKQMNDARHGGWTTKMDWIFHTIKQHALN
T2 sequence (P27986 whole entry partner): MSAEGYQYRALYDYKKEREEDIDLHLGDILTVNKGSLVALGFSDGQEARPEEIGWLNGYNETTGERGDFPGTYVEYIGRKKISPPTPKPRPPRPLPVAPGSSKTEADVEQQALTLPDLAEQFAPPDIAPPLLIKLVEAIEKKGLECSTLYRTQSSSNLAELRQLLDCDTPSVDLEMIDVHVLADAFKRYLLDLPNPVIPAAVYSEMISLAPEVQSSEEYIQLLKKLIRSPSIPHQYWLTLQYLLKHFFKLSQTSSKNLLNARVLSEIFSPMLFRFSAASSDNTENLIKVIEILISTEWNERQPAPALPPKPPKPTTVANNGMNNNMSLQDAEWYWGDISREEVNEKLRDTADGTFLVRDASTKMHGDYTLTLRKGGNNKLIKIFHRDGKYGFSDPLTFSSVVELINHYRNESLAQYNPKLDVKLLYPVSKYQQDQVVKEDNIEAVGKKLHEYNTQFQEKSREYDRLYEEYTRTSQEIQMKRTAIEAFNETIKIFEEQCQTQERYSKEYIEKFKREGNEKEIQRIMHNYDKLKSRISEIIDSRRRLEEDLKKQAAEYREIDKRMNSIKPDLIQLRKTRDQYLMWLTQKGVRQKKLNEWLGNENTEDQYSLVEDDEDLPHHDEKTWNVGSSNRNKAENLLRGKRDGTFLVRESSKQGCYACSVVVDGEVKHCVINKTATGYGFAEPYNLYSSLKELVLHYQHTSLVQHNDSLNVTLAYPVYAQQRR

In the case of “2-[[(1R)-1-[3,6-Dimethyl-4-oxo-2-[4-(1H-pyrazol-5-yl)phenyl]chromen-8-yl]ethyl]amino]benzoic acid [Example 169]”, the half-inhibitory concentration (IC50) (as a rule, the concentration at which inhibition is half-maximal) in assay [1] is less than 500 nM; in assay [2] it was less than 500 nM; in assay [3] it was less than 50 nM.

Consider `Cc1cc(C(C)Nc2ccccc2C(=O)O)c2oc(-c3cccc(C(C)(C)C#N)c3)cc(=O)c2c1` (single isomer, unassigned; isomer 1) [Example 4, 2-[1-[2-[3-(1-Cyano-1-methyl-ethyl)phenyl]-6-methyl-4-oxo-chromen-8-yl]ethylamino]benzoic acid, Isomer 1], for which the IC50 in assay [1] is greater than 10000 nM; in assay [2], greater than 10000 nM; in assay [3] (Homo sapiens, MDA-MB-453, 3 h), greater than 500 nM.

Regarding `Cc1cc(C(C)Nc2ccccc2C(=O)O)c2oc(-c3ccc(C4(C#N)CC4)cc3)cc(=O)c2c1` (single isomer, unassigned; isomer 1) [Example 52, 2-[1-[2-[4-(l-Cyanocyclopropyl)phenyl]-6-methyl-4-oxo-chromen-8-yl]ethylamino]benzoic acid, Isomer 1], the IC50 in assay [1] was 5000 to 10000 nM; in assay [2] it was 5000 to 10000 nM; in assay [3] (Homo sapiens, MDA-MB-453, 3 h) it was greater than 500 nM.

With `Cc1cc(C(C)Nc2cccc(F)c2C(=O)O)c2oc(-c3cccc(F)c3)c(C)c(=O)c2c1` (single isomer, unassigned; isomer 1) [Example 105, 2-Fluoro-6-[1-[2-(3-fluorophenyl)-3,6-dimethyl-4-oxo-chromen-8-yl]ethylamino]benzoic acid, Isomer 1], the values for the concentration for half-maximal inhibition (IC50) in assay [1], in assay [2] and in assay [3] were 1000 to 5000 nM, less than 500 nM and less than 50 nM, respectively.

Regarding `COc1ccc(NC(C)c2cc(C)cc3c(=O)c(C)c(-c4ccccc4)oc23)c(C(=O)O)n1` (single isomer, unassigned; isomer 1) [Example 109, 3-[1-(3,6-Dimethyl-4-oxo-2-phenyl-chromen-8-yl)ethylamino]-6-methoxy-pyridine-2-carboxylic acid, Isomer 1], the IC50 in assay [1] is 500 to 1000 nM; in assay [2], less than 500 nM; in assay [3] it was less than 50 nM.

Take `Cc1cc(C(C)Nc2ccccc2C(=O)O)c2oc(-c3ccccc3)c(F)c(=O)c2c1` (single isomer, unassigned; isomer 1) [Example 132, 2-[1-(3-Fluoro-6-methyl-4-oxo-2-phenyl-chromen-8-yl)ethylamino]benzoic acid, Isomer 1]: the IC50 in assay [1] is 1000 to 5000 nM; in assay [2], less than 500 nM; in assay [3] (Homo sapiens, MDA-MB-453, 3 h), less than 50 nM.

Consider `Cc1cc([C@@H](C)Nc2ccc(C#N)cc2C(=O)O)c2oc(-c3ccccc3)c(C)c(=O)c2c1` (single isomer, unassigned; isomer 1) [Example 157], for which the IC50 in assay [1] was 5000 to 10000 nM; in assay [2] it was 5000 to 10000 nM; in assay [3], greater than 500 nM.

`Cc1cc([C@@H](C)Nc2ccc(C#N)nc2C(=O)O)c2oc(-c3ccccc3)c(C)c(=O)c2c1` (single isomer, unassigned; isomer 1) [Example 159]: the IC50 in assay [1] was 500 to 1000 nM; in assay [2] it was less than 500 nM; in assay [3] (Homo sapiens, MDA-MB-453, 3 h), less than 50 nM.

For the molecule `Cc1cc(C(C)Nc2ccccc2C(=O)O)c2oc(-c3ccc(C(=O)N(C)C)cc3)cc(=O)c2c1` (single isomer, unassigned; isomer 2) [Example 50, 2-[1-[2-[4-(Dimethylcarbamoyl)-phenyl]-6-methyl-4-oxo-chromen-8-yl]ethylamino]benzoic acid, Isomer 2], the half-inhibitory concentration (IC50) in assay [1] was greater than 10000 nM; in assay [2] it was 5000 to 10000 nM; in assay [3] (Homo sapiens, MDA-MB-453, 3 h) it was greater than 500 nM.

`Cc1cc([C@@H](C)Nc2ccc(C)nc2C(=O)O)c2oc(-c3ccccc3)c(C(F)(F)F)c(=O)c2c1` [Example 116, 6-Methyl-3-[[(1R)-1-[6-methyl-4-oxo-2-phenyl-3-(trifluoromethyl)-chromen-8-yl]ethyl]amino]pyridine-2-carboxylic acid]: in assay [3] (Homo sapiens, MDA-MB-453, 3 h), the half-maximal inhibitory concentration (IC50) is less than 50 nM.

Take `Cc1cc([C@@H](C)Nc2cccc(F)c2C(=O)O)c2oc(-c3cccc(F)c3)c(C)c(=O)c2c1` [Example 143, 2-Fluoro-6-[[(1R)-1-[2-(3-fluorophenyl)-3,6-dimethyl-4-oxo-chromen-8-yl]ethyl]amino]benzoic acid 2,2,2-trifluoroacetic acid]: in assay [3] (Homo sapiens, MDA-MB-453, 3 h), the concentration for half-maximal inhibition (IC50) was less than 50 nM.

In assay [3] (Homo sapiens, MDA-MB-453, 3 h), `Cc1cc([C@@H](C)Nc2ccccc2C(=O)O)c2oc(-c3cccc(C#N)c3F)c(C)c(=O)c2c1` [Example 170, 2-[[(1R)-1-[2-(3-Cyano-2-fluoro-phenyl)-3,6-dimethyl-4-oxo-chromen-8-yl]ethyl]amino]benzoic acid] had a half-inhibitory concentration (IC50) of less than 50 nM.

Regarding `Cc1cc([C@@H](C)Nc2ccccc2C(=O)O)c2oc(-c3ccc(-c4ccc(C#N)cc4)cc3)c(C)c(=O)c2c1` [Example 172, 2-[[(1R)-1-[2-[4-(4-Cyanophenyl)phenyl]-3,6-dimethyl-4-oxo-chromen-8-yl]ethyl]amino]benzoic acid], the IC50 in assay [3] (Homo sapiens, MDA-MB-453, 3 h) was in the range of 50 to 100 nM.

Consider `Cc1cc([C@@H](C)Nc2ccccc2C(=O)O)c2oc(-c3ccc(-c4cccc(C#N)c4)cc3)c(C)c(=O)c2c1` [Example 173, 2-[[(1R)-1-[2-[4-(3-Cyanophenyl)phenyl]-3,6-dimethyl-4-oxo-chromen-8-yl]ethyl]amino]benzoic acid], for which the half-inhibitory concentration (IC50) in assay [3] (Homo sapiens, MDA-MB-453, 3 h) lay within 50 to 100 nM.

The molecule `Cc1cc([C@@H](C)Nc2ccccc2C(=O)O)c2oc(-c3cccc(-c4ccccc4C#N)c3)c(C)c(=O)c2c1` [Example 174, 2-[[(1R)-1-[2-[3-(2-Cyanophenyl)phenyl]-3,6-dimethyl-4-oxo-chromen-8-yl]ethyl]amino]benzoic acid] gave an IC50 in assay [3] (Homo sapiens, MDA-MB-453, 3 h) of less than 50 nM.

Take `Cc1cc([C@@H](C)Nc2ccccc2C(=O)O)c2oc(-c3cccc(-c4ccc(C#N)cc4)c3)c(C)c(=O)c2c1` [Example 175, 2-[[(1R)-1-[2-[3-(4-Cyanophenyl)phenyl]-3,6-dimethyl-4-oxo-chromen-8-yl]ethyl]amino]benzoic acid]: the half-inhibitory concentration (IC50) in assay [3] (Homo sapiens, MDA-MB-453, 3 h) was in the range of 50 to 100 nM.

For the molecule `Cc1cc([C@@H](C)Nc2ccccc2C(=O)O)c2oc(-c3cccc(-c4cccc(C#N)c4)c3)c(C)c(=O)c2c1` [Example 176, 2-[[(1R)-1-[2-[3-(3-Cyanophenyl)phenyl]-3,6-dimethyl-4-oxo-chromen-8-yl]ethyl]amino]benzoic acid], the half-inhibitory concentration (IC50) in assay [3] (Homo sapiens, MDA-MB-453, 3 h) lay in the range of 50 to 100 nM.

As for `Cc1cc([C@@H](C)Nc2ccccc2C(=O)O)c2oc(-c3ccc(-c4ccccc4C#N)cc3)c(C)c(=O)c2c1` [Example 177, 2-[[(1R)-1-[2-[4-(2-Cyanophenyl)phenyl]-3,6-dimethyl-4-oxo-chromen-8-yl]ethyl]amino]benzoic acid], the IC50 in assay [3] (Homo sapiens, MDA-MB-453, 3 h) was less than 50 nM.

Consider `Cc1cc([C@@H](C)Nc2ccccc2C(=O)O)c2oc(-c3cccc(-n4cc(C#N)cn4)c3)c(C)c(=O)c2c1` [Example 178, 2-[[(1R)-1-[2-[3-(4-Cyanopyrazol-1-yl)phenyl]-3,6-dimethyl-4-oxo-chromen-8-yl]ethyl]amino]benzoic acid 2,2,2-trifluoroacetic acid], for which the IC50 in assay [3] (Homo sapiens, MDA-MB-453, 3 h) was less than 50 nM.
